From article PMC6522510 (Nature Communications, 2019)
Read-outs that look alike come from different tables or passages of the source.

Key:
Parameters in all cases: species or system AML cell lines (8); Primary HTS, single concentration about 10 uM, Cell Titer Glo viability; log10 luminescence, per cent inhibition relative to cycloheximide control
Conditions in all cases: 72 h, inhibitor
CMK = tested on: CMK
MOLM-13 = tested on: MOLM-13
U937 = tested on: U937
ML-2 = tested on: ML-2
MV4-11 = tested on: MV4-11
CHRF288-11 = tested on: CHRF288-11
CMS = tested on: CMS
M07e = tested on: M07e
[1] = relative to cycloheximide control, log10 luminescence
[2] = relative to cycloheximide control, log10 luminescence, CMK %inh, 10 µM
[3] = relative to cycloheximide control, log10 luminescence, MOLM-13 %inh, 10 µM
[4] = relative to cycloheximide control, log10 luminescence, U937 %inh, 10 µM
[5] = relative to cycloheximide control, log10 luminescence, ML-2 %inh, 10 µM
[6] = relative to cycloheximide control, log10 luminescence, MV4-11 %inh, 10 µM
[7] = relative to cycloheximide control, log10 luminescence, CHRF288-11 %inh, 10 µM
[8] = relative to cycloheximide control, log10 luminescence, CMS %inh, 10 µM
[9] = relative to cycloheximide control, log10 luminescence, M07e %inh, 10 µM

Structure (SMILES)	CMK %inh (CMK; [1]) [%]	MOLM-13 %inh (MOLM-13; [1]) [%]	U937 %inh (U937; [1]) [%]	ML-2 %inh (ML-2; [1]) [%]	MV4-11 %inh (MV4-11; [1]) [%]	CHRF288-11 %inh (CHRF288-11; [1]) [%]	CMS %inh (CMS; [1]) [%]	M07e %inh (M07e; [1]) [%]	also measured
C/C(=C\c1ccc(C(=O)O)cc1)c1ccc2c(c1)C(C)(C)CCC2(C)C [SJ000288227-4, TTNPB | TTNPB (AROTINOID ACID)]	5.715	8.388	8.124	2.308	20.2	0.3991	11.71	3.996	–
O=C1Nc2ccccc2/C1=C\c1c(Cl)[nH]c2ccccc12 [SJ000312180-2, CDK1 INHIBITOR]	109.3	82.19	78.83	57.06	76.6	68.22	93.89	105.1	–
COCC1=C(C(=O)O)N2C(=O)[C@@H](NC(=O)/C(=N\OC)c3csc(N)n3)[C@H]2SC1 [SJ000312312-2, CEFPODOXIME, FREE ACID| R-3763| U-76253 | CEFPODOXIME, FREE ACID| R-3763| U-76253 | (6R,7R)-7-((Z)-2-(2-AMINOTHIAZOL-4-YL)-2-(METHOXYIMINO)ACETAMIDO)-3-(METHOXYMETHYL)-8-OXO-5-THIA-1-AZABICYCLO[4.2.0]OCT-2-ENE-2-CARBOXYLIC ACID]	34.96	-1.275	-1.004	-0.4312	-2.052	0.005285	-1.332	-1.66	–
C[C@]12CCC(=O)C=C1[C@@H]1C[C@@H]1[C@H]1[C@@H]3[C@@H]4C[C@@H]4[C@@]4(CCC(=O)O4)[C@@]3(C)CC[C@@H]12 [SJ000312356-2, DROSPIRENONE]	38.69	1.327	3.696	-0.6244	3.583	6.784	0.9318	3.09	–
COc1ccc2nc3cc(Cl)ccc3c(Nc3cc(CN4CCCC4)c(O)c(CN4CCCC4)c3)c2n1 [SJ000518979-1, PYRONARIDINE PHOSPHATE]	87.35	93.43	76.7	59.06	74.19	68.68	102.4	115	–
Clc1ccc2c(N3CCN(CCCN4CCN(c5ccnc6cc(Cl)ccc56)CC4)CC3)ccnc2c1 [SJ000518980-1, PIPERAQUINE PHOSPHATE]	-2.506	-0.1677	-2.593	-2.97	0.4168	-8.556	3.926	-0.3802	–
CO[C@H]1C[C@@H]2CC[C@@H](C)[C@@](O)(O2)C(=O)C(=O)N2CCCC[C@H]2C(=O)O[C@H]([C@H](C)C[C@@H]2CC[C@@H](OC(=O)C(C)(CO)CO)[C@H](OC)C2)CC(=O)[C@H](C)/C=C(\C)[C@@H](O)[C@@H](OC)C(=O)[C@H](C)C[C@H](C)/C=C/C=C/C=C/1C [SJ000518987-1, TEMSIROLIMUS | CCI-779 | NSC-683864 | TORISEL | TEMSIROLIMUS (CCI-779, NSC 683864)]	14.34	6.723	25.81	9.499	11.74	29.37	21.7	19.45	–
Oc1ncc(N(CCCl)CCCl)c(O)n1 [SJ000518988-1, URACIL MUSTARD]	–	–	–	–	–	–	–	–	CMK %inh (CMK; 10 µM): -4.305%; MOLM-13 %inh (MOLM-13; 10 µM): -0.3938%; U937 %inh (U937; 10 µM): -0.2311%; ML-2 %inh (ML-2; 10 µM): 1.705%; MV4-11 %inh (MV4-11; 10 µM): -1.171%; CHRF288-11 %inh (CHRF288-11; 10 µM): 3.507%; CMS %inh (CMS; 10 µM): 1.52%; M07e %inh (M07e; 10 µM): 2.028%
CO[C@H]1O[C@@H]2O[C@@]3(C)CC[C@H]4[C@H](C)CC[C@@H]([C@H]1C)[C@@]24OO3 [SJ000519015-1]	0.2838	2.58	20.8	5.533	9.901	-0.3434	7.594	0.2631	–
CC[C@H](C)[C@@H]1NC(=O)[C@H](Cc2ccc(O)cc2)NC(=O)[C@@H](N)CSSC[C@@H](C(=O)N2CCC[C@H]2C(=O)N[C@@H](CC(C)C)C(=O)NCC(N)=O)NC(=O)[C@H](CC(N)=O)NC(=O)[C@H](CCC(N)=O)NC1=O [SJ000519020-1, OXYTOCIN]	-2.47	-2.698	-1.829	-0.7579	1.343	-2.465	-0.7099	0.04623	–
CCCN(CCc1ccc(O)cc1)C(=O)[C@@H](C)c1cccc(C(=O)c2ccccc2)c1 [SJ000520373-2, NMDA298-1]	9.519	13.67	10.97	1.661	11.33	9.808	3.128	11.25	–
C[C@@H](O)[C@@H]1NC(=O)[C@H](CCCCN)NC(=O)[C@@H](Cc2c[nH]c3ccccc23)NC(=O)[C@H](Cc2ccccc2)NC(=O)[C@@H](NC(=O)[C@H](N)Cc2ccccc2)CSSC[C@@H](C(=O)N[C@H](CO)[C@@H](C)O)NC1=O [SJ000520506-1, OCTREOTIDE ACETATE]	-5.736	0.6504	-3.486	0.4552	0.9577	5.062	0.6202	-0.4484	–
O=C1NC(=O)/C(=C\c2ccc3nccnc3c2)S1 [SJ000534768-3, PI 3-K-GAMMA-INHIBITOR | 648450-29-7 | AS-605240 | AS605240 | PI 3-KY INHIBITOR]	–	–	–	–	–	–	–	–	CMK %inh (CMK; [2]): -0.8645%; MOLM-13 %inh (MOLM-13; [3]): 3.402%; U937 %inh (U937; [4]): -0.7574%; ML-2 %inh (ML-2; [5]): -0.2464%; MV4-11 %inh (MV4-11; [6]): 0.09671%; CHRF288-11 %inh (CHRF288-11; [7]): -5.698%; CMS %inh (CMS; [8]): -2.146%; M07e %inh (M07e; [9]): 2.407%
O=C1NC(=O)/C(=C\c2ccc3nccnc3c2)S1 [SJ000534768-4, PI 3-K-GAMMA-INHIBITOR | 648450-29-7 | AS-605240 | AS605240 | PI 3-KY INHIBITOR]	–	–	–	–	–	–	–	–	CMK %inh (CMK; [2]): 2.377%; MOLM-13 %inh (MOLM-13; [3]): 1.092%; U937 %inh (U937; [4]): 0.2634%; ML-2 %inh (ML-2; [5]): 1.156%; MV4-11 %inh (MV4-11; [6]): -0.9615%; CHRF288-11 %inh (CHRF288-11; [7]): -3.707%; CMS %inh (CMS; [8]): 2.882%; M07e %inh (M07e; [9]): 2.923%
CCOC(=O)C1=C(C)NC(C)=C(C(=O)OCC)C1c1ccccc1/C=C/C(=O)OC(C)(C)C [SJ000541098-2, LACIDIPINE]	–	–	–	–	–	–	–	–	CMK %inh (CMK; [2]): 1.983%; MOLM-13 %inh (MOLM-13; [3]): 10.16%; U937 %inh (U937; [4]): 12.91%; ML-2 %inh (ML-2; [5]): 5.24%; MV4-11 %inh (MV4-11; [6]): 6.96%; CHRF288-11 %inh (CHRF288-11; [7]): -1.312%; CMS %inh (CMS; [8]): -2.509%; M07e %inh (M07e; [9]): -0.9057%
CCOC(=O)C1=C(C)NC(C)=C(C(=O)OCC)C1c1ccccc1/C=C/C(=O)OC(C)(C)C [SJ000541098-3, LACIDIPINE]	–	–	–	–	–	–	–	–	CMK %inh (CMK; [2]): 6.472%; MOLM-13 %inh (MOLM-13; [3]): 4.748%; U937 %inh (U937; [4]): 2.874%; ML-2 %inh (ML-2; [5]): 5.833%; MV4-11 %inh (MV4-11; [6]): 8.929%; CHRF288-11 %inh (CHRF288-11; [7]): -0.4968%; CMS %inh (CMS; [8]): 2.32%; M07e %inh (M07e; [9]): 5.059%
CC1(COc2ccc(CC3SC(=O)NC3=O)cc2)CCCCC1 (stereo not drawn) [SJ000546494-1, CIGLITAZONE]	0.5377	-0.9508	0.7442	1.382	4.011	3.672	-1.931	-0.4942	–
Cc1cccc(Nc2cc(Cl)nc(SCC(=O)O)n2)c1C [SJ000546497-1, WY 14643 | WY-14643 | WY-14643 (PIRINIXIC ACID)]	-0.2043	0.03488	0.764	1.805	2.638	0.5396	-0.6556	2.884	–
